The values below come from patent US20040028639A1, “Cholesterol sulfate compositions for enhancement of stratum corneum function” (priority 1999, published 2004).

Structures can show the parent of a compound that is named as a salt.

Experiment [1] relates to skin (back of hand), stratum corneum. The experiment in a line: skin flakiness by D-Squame Discs Method and Image Analysis. In kind it is in vivo, human. Particulars: 0.5% cholesterol sulfate in a water and oil emulsion base, right hand, twice a day. As to the method:
A study is conducted to determine the effect of cholesterol sulfate on skin flakiness, as an indicator of its effect in reducing desquamation. Fifteen subjects between the ages of 21 and 65 years are selected for the study. The subjects report for the study without moisturizers or any other products on their hands and their baseline measurements are taken. The subjects are given a product containing 0.5% cholesterol sulfate in a water and oil emulsion base to take home and self-administer on their right hands only, twice a day in the morning after washing and in the evening at least 15 minutes before bedtime for four weeks. The left hand serves as the untreated control site. The subjects are only allowed to use the test product and specifically log its use in a daily diary. At the end of two and four weeks the subjects return for testing without applying the product for at least 12 hours and they are re-evaluated under the same conditions.
Evaluation of flakiness is determined via the D-Squame Discs Method and Image Analysis. Briefly, four D-Squame discs are firmly pressed on the back of each hand with hand held uniform pressure device and removed by gently pulling away from the skin. […] Desquamation is evaluated from the D-Squame discs via the image analyzer. […]
An OPTIMA image analyzer is used to evaluate skin flakiness. […] The average Gray Value corresponding to the sample density is measured. […]

The subject of the next experiment is Matek skin equivalents. The experiment can be described thus: stratum corneum thickness and cohesion in skin equivalents (histology). In kind it is cell-based. As to the method: FIG. 1 illustrates the condition of stratum corneum thickness under different cholesterol sulfate treatment regimens, as described in Example I: (A) control (no treatment); (B) 1% ethanol vehicle control; (C) cholesterol sulfate, 0.01 μg/ml; (D) cholesterol sulfate, 0.1 μg/ml; (E) cholesterol sulfate, 1 μg/ml; (F) cholesterol sulfate 10 μg/ml.
This example illustrates the ability of cholesterol sulfate to retard desquamation and maintain stratum corneum thickness.
Matek skin equivalents are obtained and prepared for use in accordance with the supplier's protocol. Equilibrated skins are treated topically with dilutions of cholesterol sulfate. Cholesterol sulfate is solubilized 1 mg/ml in ethanol, and serially diluted 10-fold to yield doses of 0.01, 0.1, 1 and 10 μg/ml. Each dose is added topically to an equivalent, using a 100 μl volume. Treatment is repeated daily along with media replacement over a three day period. One sample is treated with 1% ethanol, representing a vehicle control. Following treatment, equivalents are fixed according to standard protocol, and sent for histological preparations. FIGS. 1A-F show stained sections of the two controls plus the treatment samples. […] Some compaction is seen in the ethanol treated sample, which is believed due to dehydration of the sample combined with lipid removal.

For `CC(C)CCC[C@@H](C)[C@H]1CC[C@H]2[C@@H]3CC=C4C[C@@H](OS(=O)(=O)O)CC[C@]4(C)[C@H]3CC[C@]12C` [cholesterol sulfate], the “decrease in flakiness relative to baseline” value is reported as 24.1% in experiment [1] (after 4 weeks) and 22.5% in experiment [1] (after two weeks). Moreover, the “organization and cohesion of the stratum corneum (stained sections)” value in the experiment on Matek skin equivalents (0.01, 0.1, 1 and 10 μg/ml, 100 μl topically, daily over three days, vs media control, effect increases with amount) is “gradual increase in organization and cohesion of the stratum corneum”. Also, the “thickness of the layers of the stratum corneum” value in the experiment on Matek skin equivalents (application to skin cells, FIGS. 1C-F (0.01-10 μg/ml)) was “distinct, dose-dependent, increase in the thickness”.
